These results are taken from patent EP2197279B1, “C10-SUBSTITUTED CAMPTOTHECIN ANALOGS” (BIONUMERIK PHARMACEUTICALS, INC., priority 2007, dated 2009).

The conditions of series [1]: cited from earlier work; for Non-Hematologic Toxicity No. of Patients With: Cystitis / Non-Hematologic Toxicity No. of Patients With: Diarrhea: 5-day Course; for Number of Patients with Non-Hematologic Toxicity: Cystitis / Number of Patients with Non-Hematologic Toxicity: Diarrhea: Single-Dose Method.
The test system of series [2] is advanced gastrointestinal cancer. As to conditions: cited from earlier work.
The conditions of series [3]: eight patients with measurable disease, 5-day courses at dose levels associated with toxicity; cited from earlier work.
The subject of series [4] is advanced malignant melanoma. The conditions noted are these: fifteen patients, 90-360 mg/m^2 repeated every 2 weeks; cited from earlier work.
A further series deals with human plasma proteins. The series is described as follows: Percent of free camptothecin analogs in human plasma (dialysis, HPLC). Format: in vitro ADME. The conditions noted are these: 100 nM Compound Concentrations. Here is the method: Stocks of various camptothecin analogs were prepared in DMSO. […] Optimum HPLC detection conditions for each camptothecin analog were developed using traditional HPLC methods. Table VIII. Percent of Free Camptothecin Analogs in Human Plasma (100 nM Compound Concentrations)

The subject of series [5] is panel of over 20 human cancer cell lines. As to the kind of experiment: In vitro studies on a panel of human cancer cell lines. Format: cell-based. As to conditions: compared with Topotecan or SN-38.
Setting [6] is: 15 mg/m^2 X 5, 9 patients treated.
Where [7] appears, read: 17 mg/m^2 X 5, 5 patients treated.
Setting [8] is: 20 mg/m^2 X 5, 10 patients treated.
The mark [9] stands for this setting: 5-Day Course (27 Patients Total), 4 wks.
Where [10] appears, read: 5-Day Course (27 Patients Total), 8 wks.
Setting [11] is: 5-Day Course (27 Patients Total), 12 wks.
Where [12] appears, read: Single-Dose Method (34 Patients Total), 3 wks.
The mark [13] stands for this setting: Single-Dose Method (34 Patients Total), 6 wks.
Setting [14] is: Single-Dose Method (34 Patients Total), 9 wks.
The mark [15] stands for this setting: Single-Dose Method (34 Patients Total), 12 wks.

Where two headings read alike, the source gives them in different places.

Consider `CC[C@@]1(O)C(=O)OCc2c1cc1n(c2=O)Cc2cc3ccccc3nc2-1` [CPT sodium], for which the Cystitis is 48 (P<0.05) % of 27 Patients in series [1] (5-Day Course (P<0.05)) and 24 % of 34 Patients in series [1] (Single Dose). In addition, the “Non-Hematologic Toxicity No. of Patients With: Cystitis” value in series [1] (11 mg/m^2 X 5, 2 patients treated) is reported as 1; in series [1] (setting [6]), 4; in series [1] (setting [7]), 2; in series [1] (setting [8]), 6. Also, the “Non-Hematologic Toxicity No. of Patients With: Diarrhea” value in series [1] (setting [6]) is listed as 1; in series [1] (setting [7]) it was 4; in series [1] (setting [8]), 4; in series [1] (22 mg/m^2 X 5, 1 patient treated), 1. In addition, the “Number of Patients with Non-Hematologic Toxicity: Cystitis” value is recorded as 2 in series [1] (100 mg/m^2, 6 patients treated); 1 in series [1] (110 mg/m^2, 2 patients treated); 2 in series [1] (120 mg/m^2, 7 patients treated); 3 in series [1] (180 mg/m^2, 9 patients treated). In addition, the “Number of Patients with Non-Hematologic Toxicity: Diarrhea” value in series [1] (110 mg/m^2, 2 patients treated) is 1; in series [1] (120 mg/m^2, 7 patients treated), 4; in series [1] (180 mg/m^2, 9 patients treated), 2. The “Objective Results: Improved” value in series [2] (setting [9]) is recorded as 1; in series [2] (Single-Dose Method (34 Patients Total), 3 wks after start of therapy), 4; in series [2] (setting [13]), 2; in series [2] (setting [14]), 2. Besides, the “Objective Results: Stable” value in series [2] (setting [9]) is 12; in series [2] (setting [10]) it was 7; in series [2] (setting [11]), 6; in series [2] (setting [12]) it was 17; in series [2] (setting [13]), 11; in series [2] (setting [14]) it was 8. Moreover, the “Objective Results: Stable” value in series [2] (setting [15]) was 6. Besides, the “Objective Results: Worse” value in series [2] (setting [9]) is given as 14; in series [2] (setting [10]), 20; in series [2] (setting [11]) it was 21; in series [2] (setting [12]), 13; in series [2] (setting [13]), 21; in series [2] (setting [14]), 24. In series [2] (setting [15]), the “Objective Results: Worse” value is 28. Also, the “patients with partial objective improvement” value in series [2] (after 2 months (8 or 9 weeks), of 61 patients) is “two”. The patients showing improvement result in series [2] (at 3 months, of 61 patients) is given as “none”. In addition, the “patients showing a 25%-50% response” value in series [2] (at 3 wks, only) is on record as “*A total of 3 patients showed a 25%-50% response at 3 wks, only”. In addition, the clinical benefit entry in series [3] is “No clinical benefit”. Also, the myelosuppression in series [4] is given as 11 patients. Also, the “patients with a 50% or greater decrease in tumor diameter” value in series [4] is “None”.

As for `CC[C@@]1(O)C(=O)OCc2c1cc1n(c2=O)Cc2c-1nc1ccccc1c2CC[Si](C)(C)C` [Karenitecin (BNP1350), (4S)-4-ethyl-4-hydroxy-11-[2-(trimethylsilyl)ethyl]-1H-pyrano[3':4':6,7]indolizino[1,2-b]quinoline-3,14(4H,12H)-dione], in the series on human plasma proteins, the “Percent of Free CPTs” value is listed as 1%. The antitumor potency result in series [5] is listed as “significantly more potent”.
